Here are results for eleven molecules from US11014884B2 (Global Blood Therapeutics, Inc., priority 2018, dated 2021).

Purified hemoglobin, sequence (P69905 2-142 limits assumed): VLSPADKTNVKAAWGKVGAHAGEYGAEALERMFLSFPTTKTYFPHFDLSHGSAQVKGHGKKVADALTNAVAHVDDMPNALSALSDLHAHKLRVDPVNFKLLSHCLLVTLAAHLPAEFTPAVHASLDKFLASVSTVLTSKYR
Purified hemoglobin, sequence (P68871 2-147 partner limits assumed): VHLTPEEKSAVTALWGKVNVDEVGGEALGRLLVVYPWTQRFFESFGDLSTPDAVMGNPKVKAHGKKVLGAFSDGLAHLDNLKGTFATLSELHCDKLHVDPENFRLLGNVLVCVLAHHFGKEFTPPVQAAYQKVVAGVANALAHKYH

The target of the assay is Purified hemoglobin (Homo sapiens, UniProt P69905). Description: Hemoglobin assay: oxygen equilibrium curves with purified hemoglobin, change in p50. The assay is classed as biochemical. The conditions noted are these: purified hemoglobin 25 μM, compound 25 μM, 1 h at 37° C. The procedure:
Hemoglobin assay: Oxygen equilibrium curves (OECs) were collected as described above. Purified hemoglobin (25 μM) was incubated for 1 h at 37° C. with the indicated compounds (30 μM for compounds 6, 7, 8, and 11; 25 μM for compounds 55 to 67 (Enantiomer 1 and Enantiomer 2)) in 5 ml of TES (2-[[1,3-dihydroxy-2-(hydroxymethyl)propan-2-yl]amino]ethanesulfonic acid)/saline buffer prior to measurements. The samples were then oxygenated with compressed air within the Hemox Analyzer and the OECs were collected during deoxygenation as previously described. p50 values were obtained using a non-linear regression analysis, and Δp50(%) was calculated as described above.
In the case of `CC1CN(C(=O)c2cccc(O)c2C=O)C(COc2cccc(O)c2C=O)CO1` (centres unmarked) [Compound 60, 2-((4-(2-formyl-3-hydroxybenzoyl)-6-methylmorpholin-3-yl)methoxy)-6-hydroxybenzaldehyde], the “Delta-p50 (%)” value is 67%.

Take `O=Cc1c(O)cccc1OC[C@H]1CN(C(=O)c2cccc(O)c2C=O)CCO1` [Compound 59, 2-[[(2R)-4-(2-formyl-3-hydroxybenzoyl)morpholin-2-yl]methoxy]-6-hydroxybenzaldehyde]: the “Delta-p50 (%)” value is listed as 71%.

On to `CC1(C)C[C@@H](COc2cccc(O)c2C=O)N(C(=O)c2cccc(O)c2C=O)C1` [Compound 65, 2-[[(2S)-1-(2-formyl-3-hydroxybenzoyl)-4,4-dimethylpyrrolidin-2-yl]methoxy]-6-hydroxybenzaldehyde], for which the “Delta-p50 (%)” value came to 69%.

With `O=Cc1ccccc1OC[C@@H]1CCCCN1C(=O)c1cccc(O)c1C=O` [Compound 55, (S)-2-(2-((2-formylphenoxy)methyl)piperidine-1-carbonyl)-6-hydroxybenzaldehyde], the “Delta-p50 (%)” value was determined as 71%.

With `O=Cc1cccc(C(=O)N2CCC[C@@H](COc3cccc(O)c3C=O)C2)c1O` [Compound 58], the “Delta-p50 (%)” value is 71%.

With `O=Cc1c(O)cccc1OC[C@H]1CN(C(=O)c2cccc(O)c2C=O)CCO1` [Compound 62, 2-[[(2R)-4-(2-formyl-3-hydroxybenzoyl)morpholin-2-yl]methoxy]-6-hydroxybenzaldehyde], the “Delta-p50 (%)” value is on record as 69%.

Regarding `O=Cc1cc(C(=O)N2CCC[C@@H](COc3cccc(O)c3C=O)C2)ccc1O` [Compound 61, 2-[[(3R)-1-(3-formyl-4-hydroxybenzoyl)piperidin-3-yl]methoxy]-6-hydroxybenzaldehyde], the “Delta-p50 (%)” value is recorded as 71%.

Turning to `O=Cc1c(O)cccc1OCC1CSCCN1C(=O)c1cccc(O)c1C=O` (single isomer, unassigned) [67 (Enantiomer 1), 2-((4-(2-formyl-3-hydroxybenozyl)thiomorpholin-3-yl)methoxy)-6-hydroxybenzaldehyde], the “Delta-p50 (%)” value was 67.2%.

With `CC1(C)CN(C(=O)c2cccc(O)c2C=O)C(COc2cccc(O)c2C=O)CO1` (stereo in doubt) [Compound 64], the “Delta-p50 (%)” value came out at 67%.

As to `COc1ccc(C(=O)N2CCCC[C@H]2COc2cccc(O)c2C=O)c(C=O)c1O` [Compound 57, (S)-6-(2-((2-formyl-3-hydroxyphenoxy)methyl)piperidine-1-carbonyl)-2-hydroxy-3-methoxybenzaldehyde], the “Delta-p50 (%)” value is given as 71%.

Consider `O=Cc1ccccc1OC[C@@H]1COCCN1C(=O)c1cccc(O)c1C=O` [Compound 56, (S)-2-(3-((2-formylphenoxy)methyl)morpholine-4-carbonyl)-6-hydroxybenzaldehyde], for which the “Delta-p50 (%)” value is 70%.
